Measurements from patent US9434994B2, “Methods for prediction of clinical outcome to epidermal growth factor receptor inhibitors by non-small cell lung cancer patients” (The Regents of the University of Colorado, a body corporate, priority 2004, dated 2016).
Several values for one entry are separate records, joined by “and”; a condition that tells them apart may be missing. Equal values may be shown once. Read-outs that look alike come from different tables or passages of the source.

System: advanced non-small-cell lung cancer patients
[1] = EGFR FISH Group 1 (disomy to low polysomy)
[2] = EGFR FISH Group 2 (high polysomy, amplification)
[3] = EGFR FISH- and/or P-Akt- (any negative)
[4] = EGFR IHC- and/or P-Akt- (any negative)
[5] = EGFR mutation- and/or P-Akt- (any negative)
[6] = HER2 FISH+ and/or EGFR IHC+ (other three groups combined)

Experimental: Eligibility included histologically confirmed NSCLC patients with measurable, locally advanced or metastatic disease, who had progressed or relapsed after chemotherapy, and patients ineligible for chemotherapy because they were elderly, had poor performance status, or comorbid medical condition. Before trial inclusion, smoking status was assessed and patients were classified as never, former (smoking cessation >6 months prior to trial inclusion), or current smokers (cessation <6 months before trial inclusion or active smoker).
Patients were evaluated for response according to the RECIST criteria (30). Tumor response was assessed by computer tomography scan every two months, with a confirmatory evaluation to be repeated in responding patients at least 4 weeks after the initial determination of response. […] Survival (OS) was calculated from the date of therapy initiation to the date of death or last contact.
Differences between the FISH groups were compared by Fisher's exact test or χ^2 test for qualitative variables and by t-student test or ANOVA for continuous variables. Normality of the distribution was assessed by Kolmogorov-Smirnov test. […] Risk factors associated with survival were evaluated using Cox's proportional-hazards regression model with a step-down procedure (33). Only those variables with significant results in univariate analysis were included in the multivariate analysis. The criteria for variable removal was the likelihood ratio statistic based on the maximum partial likelihood estimated (default p-value=0.10 for removal from the model).
Complete clinical information and tissue blocks were available from 80 out of 106 patients enrolled in the Akt clinical trial (Cappuzzo et al., ibid.), and from an additional 22 patients in the Expanded Access Study who were treated consecutively at the end of the Akt study and followed in the same way as patients in the Akt trial.
Eligibility for both studies included histologically confirmed NSCLC with measurable, locally advanced or metastatic disease, progressing or relapsing after chemotherapy or with medical contraindications for chemotherapy. Patients had performance status ranging from grade 0 to 2. Performance status was defined according to Eastern Cooperative Oncology Group (Oken et al., 1982) and considered grade 0 when the patient was fully active and able to perform all pre-disease activities without restriction, grade 1 when the patient was restricted in physically strenuous activity but ambulatory and able to perform work of a light or sedentary nature, and grade 2 when the patient was ambulatory and capable of all self-care but unable to perform any work activities.
Tumor response was assessed by computer tomography scan after 2 months, with a confirmatory evaluation to be repeated in responders and in patients with stable disease at least 4 weeks after the initial determination of response. […] Survival was calculated from the date of therapy initiation to the date of death or to the date of last contact.
Differences between and among groups were compared using Fisher's exact test or Pearson's chi square test for qualitative variables and using student's t test or analysis of variance for continuous variables. Normality of the distribution was assessed using the Kolmogorov-Smirnov test (Curiel et al., 1990).

COc1cc2ncnc(Nc3ccc(F)c(Cl)c3)c2cc1OCCCN1CCOCC1 [gefitinib]
Patients progressed at 12 months (EGFR FISH Group 1): 91%
Two-year survival rate (EGFR FISH Group 1): 17%
% Patients without disease progression at 12 months [1]: 8.7%
Complete and Partial Response [1]: 2.9%
Median Time to Progression [1]: 2.5 months
One-year Survival Rate [1]: 36.2%
Progressive Disease [1]: 73.9%
Stable Disease [1]: 23.2%
Patients progressed at 12 months (EGFR FISH Group 2): 61%
Two-year survival rate (EGFR FISH Group 2): 40%
% Patients without disease progression at 12 months [2]: 39.4%
Complete and Partial Response [2]: 36% and 36.4%
Disease Control Rate [2]: 66.7%
Median Time to Progression [2]: 6.3 months
One-year Survival Rate [2]: 63.6%
Progressive Disease [2]: 33.3%
Stable Disease [2]: 30.3%
% Patients without disease progression at 12 months (EGFR FISH disomy): 8.3%
Complete and Partial Response (EGFR FISH disomy): no responders
Median Time to Progression (EGFR FISH disomy): 2.5 months
One-year Survival Rate (EGFR FISH disomy): 38.9%
Progressive Disease (EGFR FISH disomy): 75%
Stable Disease (EGFR FISH disomy): 25.0%
% Patients without disease progression at 12 months (EGFR FISH high polysomy): 35.0%
Disease Control Rate (EGFR FISH high polysomy): 60.0%
Median Time to Progression (EGFR FISH high polysomy): 6.6 months
One-year Survival Rate (EGFR FISH high polysomy): 65.0%
Progressive Disease (EGFR FISH high polysomy): 40%
Stable Disease (EGFR FISH high polysomy): 35%
% Patients without disease progression at 12 months (EGFR FISH high trisomy): 100%
Complete and Partial Response (EGFR FISH high trisomy): 100%
Disease Control Rate (EGFR FISH high trisomy): 100%
Median Overall Survival (EGFR FISH high trisomy): 13.7 months
One-year Survival Rate (EGFR FISH high trisomy): 100%
% Patients without disease progression at 12 months (EGFR FISH low polysomy): 0%
Complete and Partial Response (EGFR FISH low polysomy): no responders
Disease Control Rate (EGFR FISH low polysomy): 14.3%
Median Overall Survival (EGFR FISH low polysomy): 3.0 months
Median Time to Progression (EGFR FISH low polysomy): 2.1 months
Progressive Disease (EGFR FISH low polysomy): 86% and 85.7%
Stable Disease (EGFR FISH low polysomy): 14.3%
% Patients without disease progression at 12 months (EGFR FISH low trisomy): 5.9%
Complete and Partial Response (EGFR FISH low trisomy): no responders
Disease Control Rate (EGFR FISH low trisomy): 29.4%
Median Overall Survival (EGFR FISH low trisomy): 10.2 months
Median Time to Progression (EGFR FISH low trisomy): 3.6 months
One-year Survival Rate (EGFR FISH low trisomy): 41.2%
Progressive Disease (EGFR FISH low trisomy): 71% and 70.6%
Stable Disease (EGFR FISH low trisomy): 29.4%
1-year Cumulative Survival ± SD (EGFR FISH+/P-Akt+): 33 ± 9%
Median Survival (EGFR FISH+/P-Akt+): 18.7 months
1-year Cumulative Survival ± SD (EGFR FISH+/P-Akt-): 75 ± 22%
Median Time to Progression (EGFR FISH+/P-Akt-): 1.1 months
Objective Response (EGFR FISH+/P-Akt-): 0%
Disease Control Rate [3]: 28% and 19/27%
Median Time to Progression [3]: 2.5 months
Objective Response [3]: 3% and 2/3%
Median Time to Progression (EGFR FISH-/P-Akt+): 2.6 months
Objective Response (EGFR FISH-/P-Akt+): 5% and 2/5%
1-year Cumulative Survival ± SD (EGFR FISH-/P-Akt-): 57 ± 9%
Disease Control Rate (EGFR FISH-/P-Akt-): 6/22%
Median Time to Progression (EGFR FISH-/P-Akt-): 2.4 months
Objective Response (EGFR FISH-/P-Akt-): 0%
1-year survival (EGFR IHC score 0-99): 27% and 27 ± 10%
MS (median overall survival) (EGFR IHC score 0-99): 4.5 mo
PD (progressive disease) (EGFR IHC score 0-99): 19 (95%)
TTP (EGFR IHC score 0-99): 2.1 mo
1-year survival (EGFR IHC score 100-199): 35% and 35 ± 10%
MS (median overall survival) (EGFR IHC score 100-199): 5.3 mo
OR (objective response) (EGFR IHC score 100-199): 2 (10%)
TTP (EGFR IHC score 100-199): 2.3 mo
MS (median overall survival) (EGFR IHC score 200-299): 15.2 mo
OR (objective response) (EGFR IHC score 200-299): 4 (26%)
PD (progressive disease) (EGFR IHC score 200-299): 5 (33%)
MS (median overall survival) (EGFR IHC score 300-400): 11.3 mo
PD (progressive disease) (EGFR IHC score 300-400): 21 (49%)
TTP (EGFR IHC score 300-400): 4.5 mo
1-year survival (EGFR IHC+ (≧200)): 48 ± 7%
MS (median overall survival) (EGFR IHC+ (≧200)): 11.5 mo
TTP (EGFR IHC+ (≧200)): 5.2 mo
Median Time to Progression (EGFR IHC+/P-Akt+): 6.2 months
1-year Cumulative Survival ± SD (EGFR IHC+/P-Akt-): 35 ± 12%
Median Time to Progression (EGFR IHC+/P-Akt-): 1.8 months
Objective Response (EGFR IHC+/P-Akt-): 0%
1-year survival (EGFR IHC- (<200)): 31 ± 7%
MS (median overall survival) (EGFR IHC- (<200)): 5.0 mo
TTP (EGFR IHC- (<200)): 2.3 mo
1-year Cumulative Survival ± SD [4]: 35 ± 7%
Median Time to Progression [4]: 2.3 months
Objective Response [4]: 4% and 2/3%
Disease Control Rate (EGFR IHC-/P-Akt+): 7/27%
Median Time to Progression (EGFR IHC-/P-Akt+): 2.3 months
Objective Response (EGFR IHC-/P-Akt+): 2/8%
1-year Cumulative Survival ± SD (EGFR IHC-/P-Akt-): 54 ± 8%
Disease Control Rate (EGFR IHC-/P-Akt-): 1/7%
Median Survival (EGFR IHC-/P-Akt-): 4.2 months
Median Time to Progression (EGFR IHC-/P-Akt-): 2.0 months
Objective Response (EGFR IHC-/P-Akt-): 0%
Median Survival (EGFR Mutation+/P-Akt+): 20.8 months
Median Time to Progression (EGFR Mutation+/P-Akt+): 11.2 months
Disease Control Rate (EGFR Mutation+/P-Akt-): 0%
Median Survival (EGFR Mutation+/P-Akt-): 3.1 months
Median Time to Progression (EGFR Mutation+/P-Akt-): 1.1 months
Objective Response (EGFR Mutation+/P-Akt-): 0%
1-year Cumulative Survival ± SD (EGFR Mutation-/P-Akt+): 50 ± 35%
Median Time to Progression (EGFR Mutation-/P-Akt+): 2.7 months
Objective Response (EGFR Mutation-/P-Akt+): 4/9%
1-year Cumulative Survival ± SD (EGFR Mutation-/P-Akt-): 65 ± 14%
Disease Control Rate (EGFR Mutation-/P-Akt-): 6/22%
Median Time to Progression (EGFR Mutation-/P-Akt-): 2.4 months
Objective Response (EGFR Mutation-/P-Akt-): 0%
% Patients without disease progression at 12 months (EGFR gene amplification): 46.2%
Complete and Partial Response (EGFR gene amplification): 53.8% and 54%
Disease Control Rate (EGFR gene amplification): 76% and 76.9%
Median Time to Progression (EGFR gene amplification): 6.0 months
One-year Survival Rate (EGFR gene amplification): 61.5%
Progressive Disease (EGFR gene amplification): 23.1%
Stable Disease (EGFR gene amplification): 23.1%
1-year survival (EGFR mutation absent): 38 ± 6
PD (EGFR mutation absent): 50 (68%)
TTP (EGFR mutation absent): 2.6 mo
1-year survival (EGFR mutation present): 57 ± 13
MS (EGFR mutation present): 20.8 mo
TTP (EGFR mutation present): 9.9 mo
Disease Control Rate [5]: 32% and 23/31%
Median Time to Progression [5]: 2.6 months
Objective Response [5]: 6% and 4/5%
DCR (HER2 FISH+): 56.5%
OR (HER2 FISH+): 34.8%
OS (HER2 FISH+): 20.8 months
TTP (HER2 FISH+): 9.05 months
DCR (HER2 FISH+ and/or EGFR FISH+): 57.1%
OR (HER2 FISH+ and/or EGFR FISH+): 28.6%
DCR [6]: 51.5%
OR [6]: 19.1%
OR (HER2 FISH+ and/or EGFR mutation+ (other groups combined)): 30.8%
DCR (HER2 FISH+/EGFR FISH+): 76.9%
OR (HER2 FISH+/EGFR FISH+): 53.8%
median OS (HER2 FISH+/EGFR FISH+): 20.8 months
median TTP (HER2 FISH+/EGFR FISH+): 9.8 months
OR (HER2 FISH+/EGFR FISH-): 21.0%
median TTP (HER2 FISH+/EGFR FISH-): 2.3 months
DCR (HER2 FISH+/EGFR IHC+): 76.9%
OR (HER2 FISH+/EGFR IHC+): 53.8%
OS (HER2 FISH+/EGFR IHC+): 20.8 months
